Consider ten compounds from patent US9896710B2, “Glycosyltransferase derived from Dolwoe and use thereof” (KOREA ADVANCED INSTITUTE OF SCIENCE AND TECHNOLOGY, priority 2014, dated 2018).

This assay concerns UDP-glycosyltransferase GpUGT23. As to the kind of experiment: In vitro glycosyltransferase assay of purified recombinant GpUGT23 with ginsenoside substrates and UDP-glucose. The assay is classed as biochemical, Dolwoe (Gynostemma pentaphyllum). The following applies: purified GpUGT23 30 μg, ginsenoside 5 mM, UDP-glucose 50 mM, 10 mM PBS pH 7, 37° C., 12 hours, products: CK->gypenoside LXXV, F2->gypenoside XVII, Rd->Rb1, F1->notoginsenoside U; for conversion of the ginsenoside by GpUGT23 (glycosyltransfer activity), HPLC: UV 203 nm (FIGS. 3 and 4); for conversion of the ginsenoside by GpUGT23 (glycosyltransfer activity), TLC: TLC (FIG. 2). On the procedure: A glycosyltransferase assay was performed in a reaction buffer (10 mM PBS buffer, pH 7) containing the purified GpUGT23 (30 μg), a ginsenoside compound (5 mM) and UDP-glucose (50 mM). For this assay, 4 different types of ginsenosides, including CK (Compound K), F2, Rd, and F1, were used and reacted with the enzyme of the present invention.
The reaction mixture was incubated at 37° C. for 12 hours, and then the products were analyzed by thin-layer chromatography (TLC) or high performance liquid chromatography (HPLC).
TLC analysis was performed using a mobile phase (acetone:methanol:DDW=65:35:10 vol/vol) and a 60F254 silica gel plate (Merck, Germany). The resolved product on the TLC plate was detected by spraying the plate with 10% (vol/vol) sulfuric acid (H2SO4) and heating it at 110° C. for 5 minutes (FIG. 2).
HPLC analysis was performed using ODS(2) C18 column (Phenomenex, USA). Water and acetonitrile gradient application time and a component ratio are as follows: at a flow rate of 1 mL per minute, at 0 minutes, 68% water and 32% acetonitrile; 8 minutes, 35% water and 65% acetonitrile; 12 minutes, 0% water and 100% acetonitrile; 20 minutes, 0% water and 100% acetonitrile; 20.1 minutes, 68% water and 32% acetonitrile; and 28 minutes, 68% water and 32% acetonitrile (FIGS. 3 and 4).
Ginsenosides were detected by using a UV-detector (Agilent, USA) at a wavelength of 203 nm.
Substrate specificity and regioselectivity of GpUGT23 were examined by the method described in Example 2.
First, the recombinant GpUGT of Example 1, GpUGT23, was reacted with 9 types of ginsenosides (PPD, Rh2, Rg3, CK, F2, Rd, PPT, F1, and Rh1) in the presence of UDP-glucose, and the reaction products of CK, F2, Rd, and F1 were analyzed by TLC (thin-layer chromatography).
To further analyze these, 4 different types of ginsenosides (CK, F2, Rd, and F1) were incubated with GpUGT23, and then the products converted by the recombinant GpUGT23 were analyzed by TLC, and the results are shown in FIG. 2. The results were confirmed by comparing their migrating spots with migrating spots of CK, Gyp75 (gypenoside LXXV), F2, Gyp17 (gypenoside XVII), Rd, Rb1, and F1 used as reference samples.

In the case of `CC(C)=CCC[C@](C)(O[C@@H]1O[C@H](CO)[C@@H](O)[C@H](O)[C@H]1O)[C@H]1CC[C@]2(C)[C@@H]1[C@H](O)C[C@@H]1[C@@]3(C)CC[C@H](O[C@@H]4O[C@H](CO)[C@@H](O)[C@H](O)[C@H]4O[C@@H]4O[C@H](CO)[C@@H](O)[C@H](O)[C@H]4O)C(C)(C)[C@@H]3CC[C@]12C` [Rd], the “conversion of the ginsenoside by GpUGT23 (glycosyltransfer activity), HPLC” value (“conversion of the ginsenoside by GpUGT23 … HPLC” for short) is “converted” and the “conversion of the ginsenoside by GpUGT23 (glycosyltransfer activity), TLC” value (from here on “conversion of the ginsenoside by GpUGT23 … TLC”) is “converted”. On to `CC(C)=CCC[C@](C)(O[C@@H]1O[C@H](CO)[C@@H](O)[C@H](O)[C@H]1O)[C@H]1CC[C@]2(C)[C@@H]1[C@H](O)C[C@@H]1[C@@]3(C)CC[C@H](O[C@@H]4O[C@H](CO)[C@@H](O)[C@H](O)[C@H]4O)C(C)(C)[C@@H]3CC[C@]12C` [F2], for which the “conversion of the ginsenoside by GpUGT23 … HPLC” value was “converted” and the “conversion of the ginsenoside by GpUGT23 … TLC” value is “converted”. For the compound `CC(C)=CCC[C@](C)(O)[C@H]1CC[C@]2(C)[C@@H]1[C@H](O)C[C@@H]1[C@@]3(C)CC[C@H](O[C@@H]4O[C@H](CO)[C@@H](O)[C@H](O)[C@H]4O)C(C)(C)[C@@H]3CC[C@]12C` [Rh2], the “conversion of the ginsenoside by GpUGT23 … HPLC” value was “did not react”. On the same count and under the same terms, next, `CC(C)=CCC[C@](C)(O)[C@H]1CC[C@]2(C)[C@@H]1[C@H](O)C[C@@H]1[C@@]3(C)CC[C@H](O)C(C)(C)[C@@H]3[C@@H](O[C@@H]3O[C@H](CO)[C@@H](O)[C@H](O)[C@H]3O[C@@H]3O[C@@H](C)[C@H](O)[C@@H](O)[C@H]3O)C[C@]12C` [Rg2]: “did not transfer a sugar”; `CC(C)=CCCC(C)(O)[C@H]1CC[C@]2(C)[C@@H]1[C@H](O)C[C@@H]1[C@@]3(C)CC[C@H](O)C(C)(C)[C@@H]3CC[C@]12C` (stereo in doubt) [PPD, protopanaxadiol]: “did not react”; `CC(C)=CCC[C@](C)(O)[C@H]1CC[C@]2(C)[C@@H]1[C@H](O)C[C@@H]1[C@@]3(C)CC[C@H](O)C(C)(C)[C@@H]3[C@@H](O)C[C@]12C` [PPT, protopanaxatriol]: “did not react”.

Turning to `CC(C)=CCC[C@](C)(O[C@@H]1O[C@H](CO)[C@@H](O)[C@H](O)[C@H]1O)[C@H]1CC[C@]2(C)[C@@H]1[C@H](O)C[C@@H]1[C@@]3(C)CC[C@H](O)C(C)(C)[C@@H]3CC[C@]12C` [CK, Compound K], the “conversion of the ginsenoside by GpUGT23 … HPLC” value is “converted” and the “conversion of the ginsenoside by GpUGT23 … TLC” value is given as “converted”. With `CC(C)=CCC[C@](C)(O[C@@H]1O[C@H](CO)[C@@H](O)[C@H](O)[C@H]1O)[C@H]1CC[C@]2(C)[C@@H]1[C@H](O)C[C@@H]1[C@@]3(C)CC[C@H](O)C(C)(C)[C@@H]3[C@@H](O)C[C@]12C` [F1], the “conversion of the ginsenoside by GpUGT23 … HPLC” value is listed as “converted” and the “conversion of the ginsenoside by GpUGT23 … TLC” value is given as “converted”.

Consider `CC(C)=CCC[C@](C)(O)[C@H]1CC[C@]2(C)[C@@H]1[C@H](O)C[C@@H]1[C@@]3(C)CC[C@H](O)C(C)(C)[C@@H]3[C@@H](O[C@@H]3O[C@H](CO)[C@@H](O)[C@H](O)[C@H]3O)C[C@]12C` [Rh1], for which the “conversion of the ginsenoside by GpUGT23 … HPLC” value is “did not react”. Consider `CC(C)=CCC[C@](C)(O)[C@H]1CC[C@]2(C)[C@@H]1[C@H](O)C[C@@H]1[C@@]3(C)CC[C@H](O[C@@H]4O[C@H](CO)[C@@H](O)[C@H](O)[C@H]4O[C@@H]4O[C@H](CO)[C@@H](O)[C@H](O)[C@H]4O)C(C)(C)[C@@H]3CC[C@]12C` [Rg3], for which the “conversion of the ginsenoside by GpUGT23 … HPLC” value is on record as “did not react”.
